Assay results from US20260262643A1, “HERBICIDAL BENZOXAZINES” (FMC CORPORATION, priority 2022, published 2026).

Tests used:
wheat [1] = test: Test C preemergence; format: in vivo, Triticum aestivum
Procedure, shortened: (§1)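 Seeds sown in loam soil–sand blend received a directed preemergence soil spray of test chemical in non-phytotoxic solvent with surfactant; postemergence plants (2–10 cm, one- to two-leaf stage) were sprayed with the same formulation. Greenhouse-held 10 days, then visually rated for injury versus untreated controls, 0 (no effect) to 100 (complete control).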

oat, wild [2] = test: Test C preemergence; format: in vivo, Avena fatua
Procedure, shortened: as §1

green foxtail [3] = test: Test C preemergence; format: in vivo, Setaria viridis
Procedure, shortened: as §1

soybean [4] = test: Test C preemergence; format: in vivo, Glycine max
Procedure, shortened: as §1

barnyardgrass [5] = test: Test D flooded paddy test; format: in vivo, Echinochloa crus-galli; conditions: 250 g ai/ha, applied to paddy water, visual rating after 13 to 14 days, scale 0 to 100 (0 no effect, 100 complete control)
Procedure, shortened: (§2)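 Plants at the 2-leaf stage were grown in pots flooded to 3 cm, and compound was applied directly into the paddy water, with depth kept throughout. After 13–14 days in a greenhouse, injury was rated visually against untreated controls on a 0–100 scale (100 = complete control); a dash means not tested.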

rice = test: Test D flooded paddy test; format: in vivo, Oryza sativa; conditions: 250 g ai/ha, applied to paddy water, visual rating after 13 to 14 days, scale 0 to 100 (0 no effect, 100 complete control)
Procedure, shortened: as §2

kochia [6] = test: Test C preemergence; format: in vivo, Bassia scoparia
Procedure, shortened: as §1

wheat [7] = test: Test C postemergence; format: in vivo, Triticum aestivum; conditions: 10 days, 0 to 100 scale (0 no effect, 100 complete control)
Procedure, shortened: as §1

ragweed [8] = test: Test C postemergence; format: in vivo, Ambrosia artemisiifolia; conditions: 10 days, 0 to 100 scale (0 no effect, 100 complete control)
Procedure, shortened: as §1

kochia [9] = test: Test C postemergence; format: in vivo, Bassia scoparia; conditions: 10 days, 0 to 100 scale (0 no effect, 100 complete control)
Procedure, shortened: as §1

pigweed, palmer [10] = test: Test C postemergence; format: in vivo, Amaranthus palmeri; conditions: 10 days, 0 to 100 scale (0 no effect, 100 complete control)
Procedure, shortened: as §1

blackgrass [11] = test: Test C preemergence; format: in vivo, Alopecurus myosuroides
Procedure, shortened: as §1

barnyardgrass [12] = test: Test C postemergence; format: in vivo, Echinochloa crusgalli; conditions: 10 days, 0 to 100 scale (0 no effect, 100 complete control)
Procedure, shortened: as §1

pigweed, palmer [13] = test: Test C preemergence; format: in vivo, Amaranthus palmeri
Procedure, shortened: as §1

horseweed = test: Test C postemergence; format: in vivo, Erigeron canadensis; conditions: 10 days, 0 to 100 scale (0 no effect, 100 complete control)
Procedure, shortened: as §1

ragweed [14] = test: Test C preemergence; format: in vivo, Ambrosia artemisiifolia
Procedure, shortened: as §1

corn [15] = test: Test C postemergence; format: in vivo, Zea mays; conditions: 10 days, 0 to 100 scale (0 no effect, 100 complete control)
Procedure, shortened: as §1

oat, wild [16] = test: Test C postemergence; format: in vivo, Avena fatua; conditions: 10 days, 0 to 100 scale (0 no effect, 100 complete control)
Procedure, shortened: as §1

soybean [17] = test: Test C postemergence; format: in vivo, Glycine max; conditions: 10 days, 0 to 100 scale (0 no effect, 100 complete control)
Procedure, shortened: as §1

green foxtail [18] = test: Test C postemergence; format: in vivo, Setaria viridis; conditions: 10 days, 0 to 100 scale (0 no effect, 100 complete control)
Procedure, shortened: as §1

ryegrass, Italian [19] = test: Test C preemergence; format: in vivo, Lolium multiflorum
Procedure, shortened: as §1

corn [20] = test: Test C preemergence; format: in vivo, Zea mays
Procedure, shortened: as §1

sedge, umbrella = test: Test D flooded paddy test; format: in vivo, Cyperus difformis; conditions: 250 g ai/ha, applied to paddy water, visual rating after 13 to 14 days, scale 0 to 100 (0 no effect, 100 complete control)
Procedure, shortened: as §2

galium = test: Test C postemergence; format: in vivo, Galium aparine; conditions: 10 days, 0 to 100 scale (0 no effect, 100 complete control)
Procedure, shortened: as §1

blackgrass [21] = test: Test C postemergence; format: in vivo, Alopecurus myosuroides; conditions: 10 days, 0 to 100 scale (0 no effect, 100 complete control)
Procedure, shortened: as §1

ryegrass, Italian [22] = test: Test C postemergence; format: in vivo, Lolium multiflorum; conditions: 10 days, 0 to 100 scale (0 no effect, 100 complete control)
Procedure, shortened: as §1

ducksalad = test: Test D flooded paddy test; format: in vivo, Heteranthera limosa; conditions: 250 g ai/ha, applied to paddy water, visual rating after 13 to 14 days, scale 0 to 100 (0 no effect, 100 complete control)
Procedure, shortened: as §2

barnyardgrass [23] = test: Test C preemergence; format: in vivo, Echinochloa crusgalli; conditions: Preemergence, 125 g ai/ha; 0 to 100 scale, 0 no effect, 100 complete control
Procedure, shortened: as §1

[24] = 500 g ai/ha, preemergence, 0 to 100 scale (0 no effect, 100 complete control)
[25] = Preemergence, 125 g ai/ha, 0 to 100 scale, 0 no effect, 100 complete control

CSc1ccc(-n2cnc(C(C)C)n2)cc1C(=O)N1C[C@H](C)Oc2c(Cl)cccc21 [Compound 391]
Wheat plant response rating (wheat [1]; [24]): 30 | Plant response rating, Wheat (wheat [1]; [25]): 0 | Oat, Wild plant response rating (oat, wild [2]; [24]): 80 | Plant response rating, Oat, Wild (oat, wild [2]; [25]): 30 | Foxtail, Green plant response rating (green foxtail [3]; [24]): 100 | Plant response rating, Foxtail, Green (green foxtail [3]; [25]): 100 | Soybean plant response rating (soybean [4]; [24]): 90 | Plant response rating, Soybean (soybean [4]; [25]): 50 | Plant response rating, Barnyardgrass (Flood) (barnyardgrass [5]): 10 | Plant response rating, Rice (Flood) (rice): 0 | Kochia plant response rating (kochia [6]; [24]): 100 | Plant response rating, Kochia (kochia [6]; [25]): 90 | Plant response rating, Wheat (wheat [7]; 500 g ai/ha, postemergence): 40 | Plant response rating, Wheat (wheat [7]; Postemergence, 125 g ai/ha): 30 | Plant response rating, Ragweed (ragweed [8]; 500 g ai/ha, postemergence): 90 | Plant response rating, Ragweed (ragweed [8]; Postemergence, 125 g ai/ha): 60 | Plant response rating, Kochia (kochia [9]; 500 g ai/ha, postemergence): 100 | Plant response rating, Kochia (kochia [9]; Postemergence, 125 g ai/ha): 100 | Plant response rating, Pigweed, Palmer (pigweed, palmer [10]; 500 g ai/ha, postemergence): 100 | Plant response rating, Pigweed, Palmer (pigweed, palmer [10]; Postemergence, 125 g ai/ha): 90 | Blackgrass plant response rating (blackgrass [11]; [24]): 80 | Plant response rating, Blackgrass (blackgrass [11]; [25]): 50 | Plant response rating, Barnyardgrass (barnyardgrass [12]; 500 g ai/ha, postemergence): 60 | Plant response rating, Barnyardgrass (barnyardgrass [12]; Postemergence, 125 g ai/ha): 40 | Pigweed, Palmer plant response rating (pigweed, palmer [13]; [24]): 100 | Plant response rating, Pigweed, Palmer (pigweed, palmer [13]; [25]): 100 | Plant response rating, Horseweed (horseweed; 500 g ai/ha, postemergence): 60 | Plant response rating, Horseweed (horseweed; Postemergence, 125 g ai/ha): 0 | Ragweed plant response rating (ragweed [14]; [24]): 60 | Plant response rating, Ragweed (ragweed [14]; [25]): 10 | Plant response rating, Corn (corn [15]; 500 g ai/ha, postemergence): 60 | Plant response rating, Corn (corn [15]; Postemergence, 125 g ai/ha): 60 | Plant response rating, Oat, Wild (oat, wild [16]; 500 g ai/ha, postemergence): 80 | Plant response rating, Oat, Wild (oat, wild [16]; Postemergence, 125 g ai/ha): 30 | Plant response rating, Soybean (soybean [17]; 500 g ai/ha, postemergence): 100 | Plant response rating, Soybean (soybean [17]; Postemergence, 125 g ai/ha): 100 | Plant response rating, Foxtail, Green (green foxtail [18]; 500 g ai/ha, postemergence): 80 | Plant response rating, Foxtail, Green (green foxtail [18]; Postemergence, 125 g ai/ha): 70 | Ryegrass, Italian plant response rating (ryegrass, Italian [19]; [24]): 90 | Plant response rating, Ryegrass, Italian (ryegrass, Italian [19]; [25]): 20 | Corn plant response rating (corn [20]; [24]): 20 | Plant response rating, Corn (corn [20]; [25]): 20 | Plant response rating, Sedge, Umbrella (Flood) (sedge, umbrella): 45 | Plant response rating, Galium (galium; 500 g ai/ha, postemergence): 100 | Plant response rating, Galium (galium; Postemergence, 125 g ai/ha): 100 | Plant response rating, Blackgrass (blackgrass [21]; 500 g ai/ha, postemergence): 80 | Plant response rating, Blackgrass (blackgrass [21]; Postemergence, 125 g ai/ha): 60 | Plant response rating, Ryegrass, Italian (ryegrass, Italian [22]; 500 g ai/ha, postemergence): 100 | Plant response rating, Ryegrass, Italian (ryegrass, Italian [22]; Postemergence, 125 g ai/ha): 50 | Plant response rating, Ducksalad (Flood) (ducksalad): 35 | Plant response rating, Barnyardgrass (barnyardgrass [23]): 60
